Data from the NIST ThermoML archive (doi:10.1021/je101191e).

What was measured:
[1] = 298.15 K; 101.33 kPa; Liquid; Pycnometric method
[2] = xn = mol fraction of the nth substance listed; details: 298.15 K, 101.3 kPa, Liquid; for viscosity: Concentric cylinders viscometry; for mass density: Pycnometric method

CCN(C(C)C)C(C)C [N-ethyl-N-(1-methylethyl)-1-methylethanamine]
Details	mass density [kg/m3]
[1]	742

CCCCCCC(=O)[O-].CC[NH+](C(C)C)C(C)C [N-ethyl-N-isopropylpropan-2-aminium heptanoate] + CC#N
[2]
Details	mass density [kg/m3]	viscosity [mPa·s]
x1 = 0.1	–	1.09
x1 = 0.1016	820.6	–
x1 = 0.2	–	1.826
x1 = 0.2003	840.8	–
x1 = 0.3	–	2.51
x1 = 0.3046	849.7	–
x1 = 0.4	–	3.875
x1 = 0.402	853.8	–
x1 = 0.5	–	5.158
x1 = 0.5021	857.1	–
x1 = 0.6	–	7.013
x1 = 0.6083	859.8	–
x1 = 0.7	–	9
x1 = 0.705	862.3	–
x1 = 0.8	–	11.6
x1 = 0.8013	863.9	–
x1 = 0.9	–	13.5
x1 = 0.9013	865.4	–
x1 = 1	866.5	12.23

CCCCCCC(=O)[O-].CC[NH+](C(C)C)C(C)C [N-ethyl-N-isopropylpropan-2-aminium heptanoate] + O
[2]
Details	mass density [kg/m3]	viscosity [mPa·s]
x1 = 0.0998	966.3	–
x1 = 0.1	–	21.99
x1 = 0.198	936.2	–
x1 = 0.2	–	43.71
x1 = 0.299	913.6	–
x1 = 0.3	–	41.58
x1 = 0.4	–	31.51
x1 = 0.4007	900.3	–
x1 = 0.5	–	26.92
x1 = 0.5007	889.9	–
x1 = 0.5941	884	–
x1 = 0.6	–	23.65
x1 = 0.6913	877.2	–
x1 = 0.7	–	22.67
x1 = 0.7896	872.6	–
x1 = 0.8	–	18.07
x1 = 0.9	–	14.44
x1 = 0.9014	869.5	–
x1 = 1	866.5	12.23

CCCCCCCC(=O)[O-].CC[NH+](C(C)C)C(C)C [N-ethyl-N-isopropylpropan-2-aminium octanoate] + CC#N
[2]
Details	mass density [kg/m3]	viscosity [mPa·s]
x1 = 0.0948	815.2	–
x1 = 0.1	–	1.291
x1 = 0.193	834.3	–
x1 = 0.2	–	1.947
x1 = 0.2908	842.2	–
x1 = 0.3	–	2.865
x1 = 0.3981	847.3	–
x1 = 0.4	–	4.921
x1 = 0.5	–	6.897
x1 = 0.505	850	–
x1 = 0.5846	852	–
x1 = 0.6	–	8.725
x1 = 0.6749	853.3	–
x1 = 0.7	–	11
x1 = 0.7994	855.8	–
x1 = 0.8	–	13.31
x1 = 0.86	856.5	–
x1 = 0.9	–	14.82
x1 = 1	858.5	13.52

CCCCCCCC(=O)[O-].CC[NH+](C(C)C)C(C)C [N-ethyl-N-isopropylpropan-2-aminium octanoate] + O
[2]
Details	mass density [kg/m3]	viscosity [mPa·s]
x1 = 0.0948	955.1	–
x1 = 0.1	–	36.61
x1 = 0.193	927.3	–
x1 = 0.2	–	52.36
x1 = 0.2908	905.7	–
x1 = 0.3	–	42.39
x1 = 0.3981	890.6	–
x1 = 0.4	–	32.19
x1 = 0.5	–	27.62
x1 = 0.505	877.4	–
x1 = 0.5846	872.2	–
x1 = 0.6	–	26.19
x1 = 0.6749	867.2	–
x1 = 0.7	–	21.29
x1 = 0.7994	862.9	–
x1 = 0.8	–	18.05
x1 = 0.86	861	–
x1 = 0.9	–	16.65
x1 = 1	858.5	13.52

CC#N [acetonitrile] + CCCCCCC(=O)[O-].CC[NH+](C(C)C)C(C)C
[2], x2 = 0
Details	mass density [kg/m3]	viscosity [mPa·s]
–	768.6	0.335

CC#N [acetonitrile] + CCCCCCCC(=O)[O-].CC[NH+](C(C)C)C(C)C
[2], x2 = 0
Details	mass density [kg/m3]	viscosity [mPa·s]
–	768.6	0.335

CCCCCCC(=O)O [heptanoic acid]
Details	mass density [kg/m3]
[1]	918

CCCCCCCC(=O)O [octanoic acid]
Details	mass density [kg/m3]
[1]	910

O [water] + CCCCCCC(=O)[O-].CC[NH+](C(C)C)C(C)C
Details	viscosity [mPa·s]
[2], x2 = 0	0.891

O [water] + CCCCCCCC(=O)[O-].CC[NH+](C(C)C)C(C)C
Details	viscosity [mPa·s]
[2], x2 = 0	0.891
